Data reported in PubChem BioAssay (NCI).
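Assay format: 96-well plates, 48-hour exposure. GI50 = concentration required for 50% inhibition of growth. At the TGI there is no net growth.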

Tests used:
Test in all cases: inhibition of tumour cell growth, NCI panel, 48 h
MDA-MB-435 = test system: MDA-MB-435
OVCAR-3 ovarian = test system: OVCAR-3 ovarian
SNB-19 CNS = test system: SNB-19 CNS
UO-31 renal = test system: UO-31 renal
M14 melanoma = test system: M14 melanoma
U251 CNS = test system: U251 CNS
SF-539 CNS = test system: SF-539 CNS
MDA-MB-231 breast = test system: MDA-MB-231 breast
LOX IMVI melanoma = test system: LOX IMVI melanoma
NCI-H460 lung = test system: NCI-H460 lung
CAKI-1 renal = test system: CAKI-1 renal
SF-295 CNS = test system: SF-295 CNS
TK-10 renal = test system: TK-10 renal
SK-MEL-5 melanoma = test system: SK-MEL-5 melanoma
HCC-2998 colon = test system: HCC-2998 colon
HOP-62 NSCLC = test system: HOP-62 NSCLC
MCF7 breast = test system: MCF7 breast
HCT-15 colon = test system: HCT-15 colon
HCT-116 colon = test system: HCT-116 colon
IGROV1 ovarian = test system: IGROV1 ovarian
A549 NSCLC = test system: A549 NSCLC
T-47D breast = test system: T-47D breast
PC-3 prostate = test system: PC-3 prostate
DU-145 prostate = test system: DU-145 prostate
MOLT-4 leukemia = test system: MOLT-4 leukemia
CCRF-CEM leukemia = test system: CCRF-CEM leukemia
RPMI-8226 leukemia = test system: RPMI-8226 leukemia
BT-549 breast = test system: BT-549 breast
NCI/ADR-RES ovarian = test system: NCI/ADR-RES ovarian
UACC-257 melanoma = test system: UACC-257 melanoma
HT29 colon = test system: HT29 colon
SK-OV-3 ovarian = test system: SK-OV-3 ovarian
HL-60(TB) leukemia = test system: HL-60(TB) leukemia
ACHN renal = test system: ACHN renal
EKVX NSCLC = test system: EKVX NSCLC
HOP-92 NSCLC = test system: HOP-92 NSCLC
UACC-62 melanoma = test system: UACC-62 melanoma
NCI-H23 lung = test system: NCI-H23 lung
SF-268 CNS = test system: SF-268 CNS
786-0 renal = test system: 786-0 renal
KM12 colon = test system: KM12 colon
SNB-75 CNS = test system: SNB-75 CNS
OVCAR-4 ovarian = test system: OVCAR-4 ovarian
OVCAR-5 ovarian = test system: OVCAR-5 ovarian
HS 578T breast = test system: HS 578T breast
SK-MEL-28 melanoma = test system: SK-MEL-28 melanoma
K-562 leukemia = test system: K-562 leukemia

## CCCCCn1c(C)cc(/C=C\c2ccc3cc(C)ccc3[n+]2C)c1C
MDA-MB-435
  GI50: 116 nM
  TGI: 1090 nM
OVCAR-3 ovarian
  GI50: 79.3 nM
  TGI: 911 nM
SNB-19 CNS
  GI50: 123 nM
  TGI: 1510 nM
UO-31 renal
  GI50: 212 nM
  TGI: 502 nM
M14 melanoma
  GI50: 253 nM
  TGI: 1380 nM
U251 CNS
  GI50: 34.5 nM
  TGI: 1520 nM
SF-539 CNS
  GI50: 241 nM
  TGI: 1060 nM
MDA-MB-231 breast
  GI50: 329 nM
  TGI: 1710 nM
LOX IMVI melanoma
  GI50: 95.1 nM
  TGI: 1850 nM
NCI-H460 lung
  GI50: 113 nM
  TGI: 839 nM
CAKI-1 renal
  GI50: 164 nM
  TGI: 675 nM
SF-295 CNS
  GI50: 98.2 nM
  TGI: 595 nM
TK-10 renal
  GI50: 157 nM
  TGI: 890 nM
SK-MEL-5 melanoma
  GI50: 80.1 nM
  TGI: 219 nM
HCC-2998 colon
  GI50: 143 nM
  TGI: 1510 nM
HOP-62 NSCLC
  GI50: 283 nM
  TGI: 980 nM
MCF7 breast
  GI50: 199 nM
  TGI: 1040 nM
HCT-15 colon
  GI50: 490 nM
  TGI: 1900 nM
HCT-116 colon
  GI50: 34.3 nM
  TGI: 1090 nM
IGROV1 ovarian
  GI50: 38.6 nM
  TGI: 1110 nM
A549 NSCLC
  GI50: 55.7 nM
  TGI: 970 nM
T-47D breast
  GI50: 29.9 nM
  TGI: 751 nM
PC-3 prostate
  GI50: 62.3 nM
  TGI: 1030 nM
DU-145 prostate
  GI50: 58.6 nM
  TGI: 1300 nM
MOLT-4 leukemia
  GI50: 76.9 nM
  TGI: 327 nM
CCRF-CEM leukemia
  GI50: 35.4 nM
  TGI: 601 nM
RPMI-8226 leukemia
  GI50: 20.2 nM
  TGI: 322 nM
BT-549 breast
  GI50: 69.9 nM
  TGI: 664 nM
NCI/ADR-RES ovarian
  GI50: 2110 nM
  TGI: > 34400 nM
UACC-257 melanoma
  GI50: 367 nM
  TGI: 1450 nM
HT29 colon
  GI50: 64.5 nM
  TGI: 1190 nM
SK-OV-3 ovarian
  GI50: 124 nM
  TGI: 853 nM
HL-60(TB) leukemia
  GI50: 29.6 nM
  TGI: 128 nM
ACHN renal
  GI50: 239 nM
  TGI: 1150 nM
EKVX NSCLC
  GI50: 275 nM
  TGI: 2430 nM
HOP-92 NSCLC
  GI50: 109 nM
  TGI: 487 nM
UACC-62 melanoma
  GI50: 243 nM
  TGI: 1100 nM
NCI-H23 lung
  GI50: 41.4 nM
  TGI: 1100 nM
SF-268 CNS
  GI50: 252 nM
  TGI: 1410 nM
786-0 renal
  GI50: 219 nM
  TGI: 1170 nM
KM12 colon
  GI50: 83.6 nM
  TGI: 1210 nM
SNB-75 CNS
  GI50: 79.1 nM
  TGI: 975 nM
OVCAR-4 ovarian
  GI50: 68.3 nM
  TGI: 1510 nM
OVCAR-5 ovarian
  GI50: 313 nM
  TGI: 1410 nM
HS 578T breast
  GI50: 166 nM
  TGI: 1750 nM
SK-MEL-28 melanoma
  GI50: 339 nM
  TGI: 1710 nM
K-562 leukemia
  GI50: 34.1 nM
  TGI: 1110 nM
